Test results published in patent publication US10398676B2, “Use of alpha-hydroxy carbonyl compounds as reducing agents” (Morvus Technology Ltd, priority 2005, dated 2019).
Marks after values point to notes of the source that are not given here.

Key:
[1] = Reduction of NADP+ by α-hydroxycarbonyl compounds (Example 7); format: physicochemical; settings: 1 mM test compound, 200 μM NADP+, pH 10 (1 mM NaHCO3 buffer), over 2 minutes
Description: A 10 μL aliquot of test compound (at a concentration of 100 mM in water) is added to a 200 μM NADP^+ aqueous solution (approximately 990 μL), buffered to pH 10 (1 mM NaHCO3 buffer). The final concentration of the test compound in the assay solution was 1 mM. Reduction of NADP^+ was then monitored by measuring the increase, over the course of 2 minutes, of absorption at 350 nm on a spectrophotometer. Initial rates were recorded as the change in A350 per minute.

[2] = Reduction of tretazicar by α-hydroxycarbonyl compounds, HPLC initial rate (Example 8); format: physicochemical; settings: 10 mM test compound, 100 μM tretazicar, 0.1 M sodium bicarbonate buffer; for Initial Rate of tretazicar reduction, pH 9: pH 9, 37° C.; for Initial Rate of tretazicar reduction, pH 10: pH 10, 37° C.
Description: (§1) The assay was started by addition of 100 μL of 100 mM test compound (compound of formula I) in water to a mixture of tretazicar (100 μM) in 0.1 M sodium bicarbonate buffer, pH 9 or pH 10, to give a final volume of 1 mL. The mixture was incubated at 37° C. and aliquots (10 μL) were taken every 6 min and assayed immediately by HPLC [Partisil 10 SCX (4.2×150 mm) (Whatman, Maidstone, Kent, U.K.] eluted isocratically with 0.13 M sodium phosphate (pH 5) at 1.5 ml/min). The concentration of tretazicar was determined in each sample by reference of the corresponding peak area with an external standard, quantified by absorbance at 325 nm. Initial rates were calculated by curve fitting (FigP, Biosoft, Cambridge, U.K.). Reduction products were identified by retention time relative to an authentic standard.

[3] = DHA reduction of prodrugs and nitro compounds, HPLC initial rate (Examples 5 and 6); format: physicochemical; settings: 100 μM compound, 10 mM DHA, 37° C.
Description: The assay mixture contained the compound under test (100 μM) and DHA (10 mM) in a final reaction volume of 1 mL of sodium phosphate buffer (of the required pH). The reaction was started by addition of DHA and the mixture is incubated at 37° C.

[4] = test system: Chinese Hamster V79 cells; assay: Survival of V79 cells, colony forming ability (FIG. 7); format: cell-based; settings: 10 or 100 μM E09 with 10 mM DHA, 2 hours, pH 7.5, 37° C.
Description: The survival of V79 cells was determined using the following method: • Volumes (1 mL, 2×10^5 cells/mL) of V79 cells in 10 mM phosphate buffer (pH 7.5) containing 140 mM NaCl were incubated at 37° C. and then reagents (as indicated above, at the concentrations stipulated) were added (except for the control experiment). After a 2 hour incubation, the cells were harvested by centrifugation, diluted out serially (4×10-fold) and the cells plated into growth medium and assayed for their colony forming ability after growth for 1 week in a humidified 5% CO2 atmosphere.

[5] = DHA reduction of prodrugs and nitro compounds, HPLC initial rate (Examples 5 and 6); format: physicochemical; settings: 100 μM compound, 1 mM DHA employed (instead of 10 mM DHA), 37° C.
[6] = Chemical activation of tretazicar by DHA in bicarbonate buffer (Example 1); format: physicochemical; settings: 10 mM DHA, 100 μM tretazicar, 0.1M sodium bicarbonate buffer, 1 ml
Description: as §1, with “DHA” for “test compound (compound of formula I)”, “0.1M” for “0.1 M”, “pH10,” for “pH 10,”, “ml.” for “mL.”, “(42×150” for “(4.2×150”, “mL/min).” for “ml/min).”

[7] = humans, phase I; cited from earlier work
[8] = test system: DNA; settings: cited from earlier work
[9] = bioactivated versus non-activated; cited from earlier work

| Compound | Rate of NADP+ reduction [1] [change in A350 per minute] | Initial Rate of tretazicar reduction, pH 9 [2] [nmoles/min/mL] | Initial Rate of tretazicar reduction, pH 10 [2] [nmoles/min/mL] | Initial Rate, pH 8 [3] [nmoles/min/mL] | Initial Rate, pH 9 [3] | Initial Rate, pH 10 [3] [nmoles/min/mL] | INITIAL RATE, 0.1 M PO4, pH7.5 [3] [nmoles/min/mL] | INITIAL RATE, 0.1 M PO4, pH8 [3] [nmoles/min/mL] | further results |
| --- | --- | --- | --- | --- | --- | --- | --- | --- | --- |
| O=CC(O)CO (racemic) [D,L-Glyceraldehyde] | 0.015 | 0.53 | 0.62 | – | – | – | – | – | – |
| CC(=O)C(C)O (stereo not shown) [3-hydroxy-2-butanone] | – | 0.034 | 0.184 | – | – | – | – | – | – |
| O=C(O)c1cc([N+](=O)[O-])c(Cl)c([N+](=O)[O-])c1 [4-chloro-3,5-dinitrobenzoic acid] | – | – | – | 0.195 | 1.293 nmoles/min/mL | 1.727 | – | – | Initial Rate, pH 10.6 [3]: 2.442 nmoles/min/mL |
| O=[N+]([O-])c1ccc(CO)cc1 [4-nitrobenzyl alcohol] | – | – | – | < 0.01 | < 0.01 nmoles/min/mL | 0.105 | – | – | Initial Rate, pH 10.6 [3]: 0.087 nmoles/min/mL |
| Cc1cc(Cl)c([N+](=O)[O-])cc1[N+](=O)[O-] [5-chloro-2,4-dinitrotoluene] | – | – | – | 0.132 | 0.499 nmoles/min/mL | 0.690 | – | – | Initial Rate, pH 10.6 [3]: 1.703 nmoles/min/mL |
| O=CC(O)C(O)CO (stereo not drawn) [D(−)-Erthrose] | 0.004 | < 0.01 | 0.28 | – | – | – | – | – | – |
| O=C(CO)CO [Dihydroxyacetone (dimer), 1,3-dihydroxy-2-propanone] | 0.063 | 0.92 | 0.69 | – | – | – | – | – | – |
| Cn1c(/C=C/CO)c(CO)c2c1C(=O)C=C(N1CC1)C2=O [E09, 3-[5-aziridinyl-4,7-dioxo-3-hydroxymethyl-1-methyl-1H-indol-2-yl]-prop-β-ene-α-ol] | – | – | – | – | – | – | 0.272 | 0.605 | cytotoxic effect (percentage survival of V79 cells) on addition of DHA [4]: greatly enhanced |
| O=C(CO)[C@H](O)[C@@H](O)CO [L-Xylulose] | 0.003 | < 0.01 | 0.28 | – | – | – | – | – | – |
| Cc1ncc([N+](=O)[O-])n1CCO [Metronidazole, 2-methyl-5-nitro-1H-imidazole-1-ethanol] | – | – | – | 0.369 | 0.890 nmoles/min/mL | 1.239 | 0.131 | 0.369 | Initial Rate, pH 10.6 [3]: 0.807 nmoles/min/mL |
| COCC(O)Cn1ccnc1[N+](=O)[O-] (stereo not shown) [Misonidazole] | – | – | – | 1.922 | 1.851 nmoles/min/mL | 3.180 | 0.221 | 1.922 | – |
| CO[C@@]12[C@H](COC(N)=O)C3=C(C(=O)C(C)=C(N)C3=O)N1C[C@@H]1N[C@@H]12 [Mitomycin C] | – | – | – | – | Too fast to measure | – | – | – | INITIAL RATE, pH7.5 column, (PBS) ([3]; PBS): 1.524 (PBS) nmoles/min/mL; Initial Rate, pH 7 ([3]; pH 7): 1.019 nmoles/min/mL; INITIAL RATE, 0.1 M PO4, pH8, 1 mM DHA ([5]; pH8): 0.052^a nmoles/min/mL; Initial Rate, pH 8, 1 mM DHA ([5]; pH8): 0.052 nmoles/min/mL; Initial Rate, pH 8.5, 1 mM DHA ([5]; pH 8.5): 0.103 nmoles/min/mL |
| NC(=O)N/N=C/c1ccc([N+](=O)[O-])o1 [Nitrofurazone, 2-[(5-nitro-2-furanyl)methylene]hydrazinecarboxamide] | – | – | – | 0.203 | 2.390 nmoles/min/mL | 3.789 | 0.177 | 0.203 | Initial Rate, pH 7.5 [3]: 0.177 nmoles/min/mL; Initial Rate, pH 8.5 [3]: 0.260 nmoles/min/mL |
| O=[N+]([O-])c1nccn1CC(O)CN1CC1 (stereo not shown) [RSU-1069/RB-1645, 1-(1-aziridinyl)-3-(2-nitro-1-imidazolyl)-2-propanol] | – | – | – | – | – | – | <0.01 | 2.57 | – |
| Nc1n[n+]([O-])c2ccccc2[n+]1[O-] [Tirapazamine, 3-amino-1,2,4-benzotriazine-1,4-dioxide] | – | – | – | 0.512 | 3.503 nmoles/min/mL | 4.209 | 0.523 | 0.512 | Initial Rate, pH 7.5 [3]: 0.523 nmoles/min/mL; Initial Rate, pH 8.5 [3]: 0.639 nmoles/min/mL |
| NC(=O)c1cc(N2CC2)c([N+](=O)[O-])cc1[N+](=O)[O-] [Tretazicar, 5-(aziridin-1-yl)-2,4-dinitrobenzamide] | – | – | – | 0.158 | 0.933 nmoles/min/mL | 1.248 | <0.01 | 0.158 | Initial Rate, pH 10.6 [3]: 5.801 nmoles/min/mL; rate of tretazicar reduction by DHA at pH 9 ([6]; pH 9, 37° C.): 0.92 nmol/min; rate of tretazicar reduction by DHA at pH 10 ([6]; pH 10, 37° C.): 0.69 nmol/min; MTD [7]: 37.5 mg/m^2; dose safely administered without any significant toxicity [7]: up to 24 mg/m^2; increase in the amount of DNA-bound drug ([8]; Walker cells compared to cells which cannot reduce tretazicar (Friedlos et al, 1992)): 10 fold; interstrand crosslinks as share of total lesions / total DNA reactions ([8]; literature values (Friedlos et al, 1992; Knox et al, 1986)): up to 70%; dose modification resulting from bioactivation (increase in cytotoxicity) [9]: up to 100,000 fold |
| Glycolaldehyde [Glycolaldehyde dimer] | 0.029 | 0.18 | 0.14 | – | – | – | – | – | – |
| Hydroxyacetone [Hydroxyacetone (acetol)] | 0.003 | – | – | – | – | – | – | – | – |
